Measurements as given in publication PMC5316407, “In vivo imaging of systemic transport and elimination of xenobiotics and endogenous molecules in mice” (Archives of Toxicology, 2016).
Where “and” joins values, the source holds several entries; their conditions need not be identical. Equal entries are not always repeated. Entries after “also recorded” stand apart in the source; their conditions may differ.

Columns and labels:
Assay type in all cases: in vivo, mouse
[1] = Intravital two-photon imaging of intestinal transport (duodenum, capillaries to lacteal)
Protocol: (§1) In vivo recordings were acquired using a custom modified inverted LSM MP7 (Zeiss, Jena, Germany) provided with a two-photon Chameleon Ultra II laser with a tuning range from 680 to 1080 nm and a maximum power of approximately 3.5 W at 800 nm. […] Images were acquired with an LD C-Apochromat 40×/1.1 water immersion objective. The temperature of the specimen was controlled with a matt coated incubation chamber (Solent Scientific, Segensworth, UK).
For in vivo imaging, 6- to 10-week-old male mice were initially anaesthetized with an intraperitoneal injection of ketamine (64 mg/kg), xylazine (7.2 mg/kg), acepromazine (1.7 mg/kg) and buprenorphine (0.08 mg/kg). […] For liver preparation, the abdominal skin was removed and a small midline incision below the sternum was made with surgical scissors. Subsequently, the falciform ligament was cautiously cut in order to dissociate the liver. […] The cover slip was put in a custom-made image platform from Plexiglas and fit into the stage of the microscope. The exposed liver was then covered with saline-soaked gauze. The temperature control of the incubation chamber was set at 36 °C. The quality of mouse preparation was verified by checking the breathing rate of the mouse and by the regular blood flow in the observed region. For the preparation of the kidney, the mouse was placed on its right side and a small incision made in the left flank region. The convex side of the left kidney was exposed via gentle pressure on the abdominal wall. In order to avoid dryness, the exposed kidney was covered with saline-moistened gauze during imaging. For intestine imaging, an incision was made on the right side of the abdominal wall. The intestine was gently pulled out using a moistened cotton-tipped applicator. To reduce peristalsis, the intestine was incubated in a 1% atropine sulfate bath for 10 min. […]
Recorded videos were quantified with the Zen software (Zeiss). Fluorescence intensity was quantified in defined regions of interest. […]

[2] = Intravital two-photon imaging of glomerular filtration and tubular transport in the kidney; settings: for Tmax: individual renal tubule; for Half-life: kidney
Protocol: as §1
(§2) For in vivo imaging, 6- to 10-week-old male mice were initially anaesthetized with an intraperitoneal injection of ketamine (64 mg/kg), xylazine (7.2 mg/kg), acepromazine (1.7 mg/kg) and buprenorphine (0.08 mg/kg). […] For liver preparation, the abdominal skin was removed and a small midline incision below the sternum was made with surgical scissors. Subsequently, the falciform ligament was cautiously cut in order to dissociate the liver. […] The cover slip was put in a custom-made image platform from Plexiglas and fit into the stage of the microscope. The exposed liver was then covered with saline-soaked gauze. The temperature control of the incubation chamber was set at 36 °C. The quality of mouse preparation was verified by checking the breathing rate of the mouse and by the regular blood flow in the observed region. For the preparation of the kidney, the mouse was placed on its right side and a small incision made in the left flank region. The convex side of the left kidney was exposed via gentle pressure on the abdominal wall. In order to avoid dryness, the exposed kidney was covered with saline-moistened gauze during imaging. For intestine imaging, an incision was made on the right side of the abdominal wall. The intestine was gently pulled out using a moistened cotton-tipped applicator. To reduce peristalsis, the intestine was incubated in a 1% atropine sulfate bath for 10 min. Subsequently, the intestine was placed in a glass bottom microwell dishes (MatTek corporation, MA, USA) containing 0.5% atropine sulfate bath during the entire recording period. In case of recordings exceeding 1 h, the mice were kept on maintenance anesthesia via a respiratory mask using an evaporator (IAS3801, FMI GmbH, Seeheim-Jugenheim, Germany) with 1–2% isoflurane and a subcutaneous injection of 0.5 ml saline was given.
(§3) Fluorescent markers or fluorescently labeled antibodies were injected via the tail vein before surgery or during recording via lateral tail vein catheters (SAI-infusion, IL, USA). […] All injected antibodies including anti-mouse CD11b, anti-mouse F4/80, anti-mouse NK1.1 and anti-mouse Ly6G (eBioscience, CA, USA) were phycoerythrin conjugated and administered in 100 µl PBS.
(§4) Recorded videos were quantified with the Zen software (Zeiss). Fluorescence intensity was quantified in defined regions of interest.
(§5) Pharmacokinetic analyses were performed with the MoBi® Toolbox for MATLAB (version 6.0.3; Bayer Technology Services GmbH, Leverkusen, Germany). PK-Sim® and MoBi® are freely available for non-commercial academic use.

[3] = Intravital two-photon imaging of hepatic transport after tail vein injection; settings: for Half-life: liver
Protocol: as §1, §2, §3, §4, §5

Transport from intestinal capillaries into intestinal crypt cells and secretion into the intestinal lumen ([1]; after intravenous injection): No transport
Half-life ([1]; intestine, blood vessels): 1.45 min
Tmax ([2]; Fig. 7, Tubule: 1): 0.38 min
Tmax ([2]; Fig. 7, Tubule: 2): 0.38 min
Tmax ([2]; Fig. 7, Tubule: 3): 0.40 min
Tmax ([2]; Fig. 7, Tubule: 4): 0.75 min
Tmax ([2]; Fig. 7, Tubule: 5): 0.45 min
Tmax ([2]; Fig. 7, Tubule: 6): 0.35 min
Tmax ([2]; Fig. 7, Tubule: 7): 3.22 min
Tmax ([2]; Fig. 7, Tubule: 8): 2.82 min
Tmax ([2]; Fig. 7, Tubule: 9): 3.34 min
Tmax ([2]; Fig. 7, Tubule: 10): 3.34 min
Tmax ([2]; Fig. 7, Tubule: 11): 0.40 min
Tmax ([2]; Fig. 7, Tubule: 12): 0.50 min
Tmax ([2]; Fig. 7, Tubule: 13): 3.24 min
Tmax ([2]; Fig. 7, Tubule: 14): 0.37 min
Tmax ([2]; Fig. 7, Tubule: 15): 3.19 min
Half-life ([2]; Bowman's space): 2.19 min
Half-life ([2]; glomerular capillaries): 2.3 min and 2.33 min
Half-life ([2]; proximal tubule): 4.88 min
Time to maximum (T max) fluorescence, distal tubules ([2]; tubular lumina, range over imaged tubules): 2.82 to 3.34 min
Time to maximum homogenous signal in the cytosol of the hepatocytes ([3]; after intravenous injection of 2.5 mg/kg): ~5 min
Enrichment in the LSEC/space of Dissé ([3]; after tail vein injection): transient enrichment
Half-life ([3]; LSEC/Dissé space): 13.46 min
Half-life ([3]; hepatocytes, nd^a = not detectable due to transportation in vesicles): 34.17 min
Half-life ([3]; sinusoids, fluorescence intensity after tail vein injection (CLF 2.5 mg/kg, dextran 30 mg/kg)): 1.9 min and 1.89 min
Appearance in the liver sinusoids after tail vein injection ([3]; time after tail vein injection): approximately 15 s
SMILES: CC(CCC(=O)NC(CCCCNC(=S)Nc1ccc(-c2c3ccc(=O)cc-3oc3cc(O)ccc23)c(C(=O)O)c1)C(=O)O)C1CCC2C3C(O)CC4CC(O)CCC4(C)C3CC(O)C12C (stereo not shown) [CLF, cholyl-lysyl-fluorescein]
Transfer from intestinal blood capillaries into lymphatic vessels (lacteals), blood-lacteal barrier ([1]; after intravenous injection): found in traces in the lymphatic vessels; also recorded: virtually impermeable
